Results reported in patent US8580918B2, “Peptidic GLP-2 agonists” (Ferring B.V., priority 2009, dated 2013).

Tests used:
[1] = Pharmacokinetics in rats after intravenous bolus injection (systemic clearance); assay type: in vivo; details: rat, plasma, adult male Sprague-Dawley rats, i.v. bolus, dose 1.0 mg FB/kg, read-out: CL (ml/kg/min) Average
How it was run: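 Systemic clearance from noncompartmental analysis as dose per kg over trapezoidal AUC extrapolated to infinity, mean and SD across animals. Plasma (K2EDTA) levels by LC/MS/MS after single IV jugular-vein bolus, 0.1-1.0 mg/kg, in 3-4 cannulated male Sprague-Dawley rats.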

[2] = in humans; cited from earlier work

clearance [1]: 24.6 mL/kg/min
SMILES: CC[C@H](C)[C@H](NC(=O)[C@H](Cc1ccccc1)NC(=O)[C@H](CC(=O)O)NC(=O)[C@H](CCCN=C(N)N)NC(=O)[C@H](C)NC(=O)[C@H](C)NC(=O)[C@H](CC(C)C)NC(=O)[C@H](CC(N)=O)NC(=O)[C@H](CC(=O)O)NC(=O)[C@H](CC(C)C)NC(=O)[C@@H](NC(=O)[C@@H](NC(=O)[C@H](CC(N)=O)NC(=O)[C@H](CCSC)NC(=O)[C@H](CCC(=O)O)NC(=O)[C@H](CC(=O)O)NC(=O)[C@H](CO)NC(=O)[C@H](Cc1ccccc1)NC(=O)[C@H](CO)NC(=O)CNC(=O)[C@H](CC(=O)O)NC(=O)[C@H](C)NC(=O)[C@@H](N)Cc1cnc[nH]1)[C@@H](C)O)[C@@H](C)CC)C(=O)N[C@@H](CC(N)=O)C(=O)N[C@@H](Cc1c[nH]c2ccccc12)C(=O)N[C@@H](CC(C)C)C(=O)N[C@H](C(=O)N[C@@H](CCC(N)=O)C(=O)N[C@H](C(=O)N[C@@H](CCCCN)C(=O)N[C@H](C(=O)N[C@H](C(=O)N[C@@H](CC(=O)O)C(=O)O)[C@@H](C)O)[C@@H](C)CC)[C@@H](C)O)[C@@H](C)CC [hGLP-2, reference compound]
half-life (t1/2) [2]: 10 min
